According to PubChem BioAssay (NCI):
Values joined by “and” are separate entries in the source; they are usually repeats but may differ in a detail not shown here. Identical values can stand only once.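 Cells were grown in 96-well plates and exposed to each compound for 48 hours at five concentrations; endpoints were interpolated linearly between bracketing concentrations, or set to the highest concentration if not reached. At the GI50, growth is halved. TGI denotes the concentration required for complete inhibition of growth.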

Each compound was assayed on ACHN renal (assay: NCI tumour cell line growth inhibition, 48 h).
Compound `Clc1ccc2c(c1)[nH]c1c2nc2ccccn21` has a GI50 of 28.1 µM and a TGI of 83 µM.
In the case of `CCOC(=O)c1cnc2c(ccc3[nH]n(C)nc32)c1=O`, the TGI is reported as > 100 µM.
With `NC(=S)N/N=C(\CC1OC(=O)c2ccccc21)c1ccc(Cl)cc1` (stereo not drawn) the TGI was > 100 µM.
`COc1ccc2occ(CCC(=O)O)c2c1` was tested, and the TGI was > 100 µM.
In the case of `CC1(C)COC(C2(C)C(=O)C=C(c3ccccc3)c3ccccc32)=N1` (stereo not drawn), the TGI is reported as > 100 µM.
`O=C(Nc1ccn(CCO)c(=O)n1)c1ccccc1` was tested, and the TGI was > 100 µM.
`C#CCOc1cccc(-c2ncc3cc(NC(=O)CCl)ccc3n2)c1` gave a GI50 of 1.72 µM and a TGI of 3.19 µM.
In the case of `O=CCC1CCCCC1`, the TGI is reported as > 100 µM.
With `CCC12CCCN(Cc3ccccc3)C1c1c(n(C)c3ccccc13)CC2` (stereo not drawn) the TGI was > 253 µM.
With `CSc1nc(=O)n(CCC#N)nc1SC` the TGI was > 100 µM.
`Cc1cc(Nc2ccc(NC(=O)c3ccc(Nc4ccnc5ccccc45)cc3)cc2)nc(N)n1` was tested, and the GI50 was 21.6 µM and the TGI was > 100 µM.
With `COC(=O)C1c2cc3c(cc2C(OC2OC(C)C(OC)C(C)(OC)C2OC)CC1(C)O)C(=O)c1c(O)cc2c(c1C3=O)OC1OC2(C)C(O)C([N+](C)(C)[O-])C1O` (stereo not drawn) the TGI was > 100 µM.
With `CNCc1ccccc1-c1csc([C@@H](C)Nc2nc(C)nc3cc(OC)c(OC)cc23)c1` the GI50 was 1.33 µM and the TGI was 2.62 µM.
In the case of `Nc1nc(Cl)cc(NCCCCCCCCNc2cc(Cl)nc(N)n2)n1`, the TGI is reported as 0.735 µM.
With `CC(C)N(C(=O)C12C3C4C1C1C4(C#N)C3C12C#N)C(C)C` (stereo not drawn) the TGI was > 100 µM.
With `O=C1CCC(Cl)=CC2CCCN12` (stereo not drawn) the TGI was > 100 µM.
With `O=C(Nc1ccc2ncccc2c1)Nc1ccc2ncccc2c1` the TGI was > 100 µM.
In the case of `CC(C)C(CCl)NC(=O)c1cccc(C(=O)N[C@H](CCl)C(C)C)n1` (stereo in doubt), the TGI is reported as > 100 µM.
For `CCC(=O)CC(=O)CCC(=O)Nc1cc(C)ccc1C`, the TGI was > 100 µM.
`C(=NCCN1CCOCC1)=NC1CCCCC1` was tested, and the TGI was > 100 µM.
`NC(N)=N/N=C/c1c(-c2ccsc2)nc2sccn12` gave a GI50 of 16.9 µM and a TGI of 32 µM.
In the case of `COC(=O)COc1ccccc1/C=C1\N=C(c2ccccc2)N(c2cc(C(F)(F)F)ccc2Cl)C1=O`, the GI50 is reported as 57 µM and the TGI is reported as > 100 µM.
`CC(=O)OC1COC(Oc2c(C)c3c4c(c2O)[C@@H](C)CC[C@@H]4[C@@H](C)C[C@H]3C=C(C)C)C(O)C1OC(C)=O` (stereo partly drawn) gave a GI50 of 11 µM and a TGI of 22.9 µM.
`CO/N=C(/C)c1cccc(Nc2cc(-n3nnc4ccccc43)nc3ccccc23)c1` was tested, and the GI50 was 42.3 µM and the TGI was > 100 µM.
In the case of `CN1CC(=O)N2Cc3ccccc3-n3cccc3C2C1` (stereo not drawn), the TGI is reported as > 100 µM.
`NC(=S)N/N=C/C(=O)O` was tested, and the GI50 was > 100 µM and the TGI was > 100 µM.
With `Cc1ccc(SC2c3ccc(C)cc3Oc3nc(N)c(C#N)c(N)c32)cc1` (stereo not drawn) the GI50 was 1.63 µM and the TGI was 2.99 µM.
Work on `CC/C=C\C[C@H](O)C/C=C1/C(=O)C(Cl)=C[C@@H]1C/C=C\CCCC(=O)OC` yielded a GI50 of 0.378 µM and a TGI of 0.849 µM.

Each compound was assayed on HL-60(TB) leukemia (assay: NCI tumour cell line growth inhibition, 48 h).
In the case of `CCOC(=O)c1cnc2c(ccc3[nH]n(C)nc32)c1=O`, the TGI is reported as > 100 µM.
For `NC(=S)N/N=C(\CC1OC(=O)c2ccccc21)c1ccc(Cl)cc1` (stereo not drawn), the TGI was > 100 µM.
With `COc1ccc2occ(CCC(=O)O)c2c1` the TGI was > 100 µM.
Work on `CC1(C)COC(C2(C)C(=O)C=C(c3ccccc3)c3ccccc32)=N1` (stereo not drawn) yielded a TGI of 67.7 µM.
In the case of `O=C(Nc1ccn(CCO)c(=O)n1)c1ccccc1`, the TGI is reported as > 100 µM.
`C#CCOc1cccc(-c2ncc3cc(NC(=O)CCl)ccc3n2)c1` showed a GI50 of 2.28 µM and a TGI of 8.02 µM.
For `CCC12CCCN(Cc3ccccc3)C1c1c(n(C)c3ccccc13)CC2` (stereo not drawn), the TGI was > 253 µM.
For `CSc1nc(=O)n(CCC#N)nc1SC`, the TGI was 30.7 µM.
With `Cc1cc(Nc2ccc(NC(=O)c3ccc(Nc4ccnc5ccccc45)cc3)cc2)nc(N)n1` the GI50 was 7.31 µM and the TGI was > 100 µM.
`Nc1nc(Cl)cc(NCCCCCCCCNc2cc(Cl)nc(N)n2)n1` gave a TGI of 48.5 µM.
With `O=C1CCC(Cl)=CC2CCCN12` (stereo not drawn) the TGI was > 100 µM.
For `CC(C)C(CCl)NC(=O)c1cccc(C(=O)N[C@H](CCl)C(C)C)n1` (stereo in doubt), the TGI was > 100 µM.
With `CCC(=O)CC(=O)CCC(=O)Nc1cc(C)ccc1C` the TGI was > 100 µM.
Compound `NC(N)=N/N=C/c1c(-c2ccsc2)nc2sccn12` has a GI50 of 16.3 µM and a TGI of 56.4 µM.
For `COC(=O)COc1ccccc1/C=C1\N=C(c2ccccc2)N(c2cc(C(F)(F)F)ccc2Cl)C1=O`, the GI50 was 31.1 µM and the TGI was > 100 µM.
For `NC(=S)N/N=C/C(=O)O`, the GI50 was > 100 µM and the TGI was > 100 µM.
`Cc1ccc(SC2c3ccc(C)cc3Oc3nc(N)c(C#N)c(N)c32)cc1` (stereo not drawn) gave a GI50 of 2.09 µM and a TGI of 5.49 µM.
With `CC/C=C\C[C@H](O)C/C=C1/C(=O)C(Cl)=C[C@@H]1C/C=C\CCCC(=O)OC` the GI50 was 0.453 µM and the TGI was 1.91 µM.

What follows are compounds tested on MALME-3M melanoma (assay: NCI tumour cell line growth inhibition, 48 h).
In the case of `Clc1ccc2c(c1)[nH]c1c2nc2ccccn21`, the GI50 is reported as > 100 µM and 17.5 µM and the TGI is reported as > 100 µM and 35.7 µM.
With `CCOC(=O)c1cnc2c(ccc3[nH]n(C)nc32)c1=O` the TGI was > 100 µM.
For `NC(=S)N/N=C(\CC1OC(=O)c2ccccc21)c1ccc(Cl)cc1` (stereo not drawn), the TGI was > 100 µM.
`CC1(C)COC(C2(C)C(=O)C=C(c3ccccc3)c3ccccc32)=N1` (stereo not drawn) showed a TGI of 63.8 µM.
For `O=C(Nc1ccn(CCO)c(=O)n1)c1ccccc1`, the TGI was > 100 µM.
With `C#CCOc1cccc(-c2ncc3cc(NC(=O)CCl)ccc3n2)c1` the GI50 was 1.65 µM and the TGI was 3.29 µM.
`O=CCC1CCCCC1` was tested, and the TGI was > 100 µM.
`CCC12CCCN(Cc3ccccc3)C1c1c(n(C)c3ccccc13)CC2` (stereo not drawn) was tested, and the TGI was > 253 µM.
`CSc1nc(=O)n(CCC#N)nc1SC` showed a TGI of 48.6 µM.
`Cc1cc(Nc2ccc(NC(=O)c3ccc(Nc4ccnc5ccccc45)cc3)cc2)nc(N)n1` gave a GI50 of 2 µM and a TGI of 4.65 µM.
In the case of `COC(=O)C1c2cc3c(cc2C(OC2OC(C)C(OC)C(C)(OC)C2OC)CC1(C)O)C(=O)c1c(O)cc2c(c1C3=O)OC1OC2(C)C(O)C([N+](C)(C)[O-])C1O` (stereo not drawn), the TGI is reported as 1.25 µM.
`CNCc1ccccc1-c1csc([C@@H](C)Nc2nc(C)nc3cc(OC)c(OC)cc23)c1` was tested, and the GI50 was 1.76 µM and the TGI was 3.28 µM.
In the case of `CC(C)N(C(=O)C12C3C4C1C1C4(C#N)C3C12C#N)C(C)C` (stereo not drawn), the TGI is reported as > 100 µM.
`O=C1CCC(Cl)=CC2CCCN12` (stereo not drawn) was tested, and the TGI was > 100 µM.
With `O=C(Nc1ccc2ncccc2c1)Nc1ccc2ncccc2c1` the TGI was > 100 µM.
